Measurements reported in patent EP0603240B1, “SAFENING HERBICIDAL PYRAZOLYLSULFONYLUREAS” (priority 1991, dated 1993).
Read-outs that look alike come from different tables or passages of the source.

Columns and labels:
Format in all cases: in vivo
corn [1] = test: Example 7, Procedure II: Herbicide No. 1 + metolachlor (No. 12) with antidotes
Experimental: (§1) Containers were filled and compacted with a fumigated silt loam top soil to a depth of about 1.3 cm from the top of the container. A first container was designated as an untreated control, a second container was designated as a herbicide control, and a third container was designated as a herbicide + antidote test container. Each of the containers was seeded with a crop species. A measured amount of herbicide dispersed or dissolved in acetone was applied to a measured quantity of soil. To this same quantity of soil treated with herbicide, there was added a measured amount of antidote dispersed or dissolved in acetone. The quantity of soil treated with the herbicide and antidote was thoroughly mixed to incorporate the herbicide and antidote in the soil uniformly. The seed bed in the third container of soil was covered with the soil treated with the herbicide and antidote and the container was leveled. For each test series, the seed beds of the first and second containers were likewise covered by soil layers. the cover layer of the first container was not treated with herbicide or antidote.
(§2) The containers were then placed on a bench in a greenhouse and sub-irrigated as required for the duration of the test. […] Plant response is measured in terms of percent injury. Antidote efficacy is indicated as the difference in plant injury by the herbicide(s) without the antidote and with the antidote.
(§3) This procedure is the same as Procedure I, but modified in the manner that after incorporation of the chemicals (herbicide and antidote) the containers with the covered seedbed were treated with an initial overhead irrigation equivalent to 0.6 cm rainfall, then subsequently sub-irrigated as required on greenhouse benches.
(§4) In this example, Procedure II described above was followed. The data from the tests in this example is shown in Table 6 and represents averages of duplicate replications.
The tests in this example followed the same procedure and antidotes used in Example 6. However, Herbicide No. 12 (metolachlor) was used as the co-herbicide with Herbicide No. 1.

[2] = system: velvetleaf (Abutilon theophrasti); test: Example 22: retest of Example 21 at reduced greenhouse temperatures; details: Table 22
Experimental: as §1, §2, §3
(§5) In the series of greenhouse tests described below, for routine screening purposes the herbicide/antidote compositions were tested in crop/weed combinations involving corn as the crop and either or both of the weeds barnyardgrass (Echinochloa crusgalli), a monocotyledonous weed, and velvetleaf (Abutilon theophrasti), a dicotyledonous weed. In the tables below, these weeds are indicated by the symbols "BYG" and "VL", respectively.
(§6) In this example, tests were conducted as in the preceding Examples 18-20, except here the co-herbicidal component was SUTAN® PLUS, a commercial product comprising as the active herbicidal ingredient the compound butylate (Herbicide No. 10) and an antidote […] (Antidote No. 1). Again, the antidotal compounds herein were Nos. 1, 2, 7, 13 and 15. Procedure II was used.
(§7) The experiments in this example were designed as a retest of those described in Example 21 in view of the uncharacteristically poor corn safety and weed control, believed to have resulted from unseasonably high temperatures in the greenhouse. Accordingly, temperatures were reduced for these tests.

[3] = system: barnyardgrass (Echinochloa crusgalli); test: as above; details: Table 22
Experimental: as §1, §2, §3, §5, §6, §7

corn [4] = test: Example 21, Procedure II: Herbicide No. 1 + SUTAN PLUS (butylate + antidote) with antidotes
Experimental: as §1, §2, §3, §6

corn [5] = test: Example 18, Procedure II: Herbicide No. 1 + ERADICANE (EPTC + R-25788) with auxiliary antidotes
Experimental: as §1, §2, §3
In the test reported in this example, the herbicidal composition was similar to that used in Example 16 in that Herbicide No. 1 was combined with EPTC (Herbicide No. 4) as a co-herbicide and the antidotes included Nos. 1, 2, 7, 13 and 15. However, in this test the EPTC was introduced as a formulation of ERADICANE (EPTC + the antidote R-25788, i.e., Antidote No. 1) at an application rate of 8.96 kg/ha. Thus, in this test two antidotes were present, viz. R-25788 and one of the auxilliary antidotes, No. 2, 13 and 15.
Test procedures were those of Procedure II above.

corn [6] = test: Example 6, Procedure II: Herbicide No. 1 + alachlor (No. 7) with antidotes
Experimental: as §1, §2, §3
This example was designed to investigate the antidotal efficacy of a plurality of antidotal compounds against a composition comprising Herbicide No. 1 in combination with Herbicide No. 7 (alachlor). The antidotal compounds used herein were Nos. 1, 2, 7, 13 and 15.
as §4

[7] = system: velvetleaf (Abutilon theophrasti); test: Example 24, Procedure II: Herbicide No. 1 + co-herbicides Nos. 4, 6, 7, 12 with Antidote Nos. 15 and 17-21; details: Abutilon theophrasti
Summary of the method: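 Greenhouse pots, herbicide No. 1 plus co-herbicides and antidote in acetone incorporated into silt loam soil covering the corn seed bed, with giant foxtail and velvetleaf; initial overhead irrigation equal to 0.6 cm rainfall, then sub-irrigation. Antidote at 2.24 kg/ha; percent injury read 13 days after application, duplicate average.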

[8] = Herbicide No.1 0.56 Kg/ha + SUTAN + 8.96 Kg/ha + antidote 2.24 Kg/ha
[9] = Herbicide No.1 0.56 Kg/ha + SUTAN + 8.96 Kg/ha + antidote 8.96 Kg/ha
[10] = Herbicide No.1 1.12 Kg/ha + SUTAN + 8.96 Kg/ha + antidote 2.24 Kg/ha
[11] = Herbicide No.1 1.12 Kg/ha + SUTAN + 8.96 Kg/ha + antidote 8.96 Kg/ha
[12] = Herbicide No.1 0.56 Kg/ha + SUTAN + 8.96 Kg/ha, no added antidote
[13] = Herbicide No.1 0.56 Kg/ha alone
[14] = Herbicide No.1 1.12 Kg/ha + SUTAN + 8.96 Kg/ha, no added antidote
[15] = Herbicide No.1 1.12 Kg/ha alone

O=C1OC(=O)c2cccc3cccc1c23 [compound 2]
% Injury Corn (corn [1]; Herbicide No.1 0.14 + No.12 3.36 kg/ha + antidote 2.24 kg/ha): 0% | % Injury Corn (corn [1]; Herbicide No.1 0.14 + No.12 3.36 kg/ha + antidote 8.96 kg/ha): 0% | % Injury Corn (corn [1]; Herbicide No.1 0.56 + No.12 3.36 kg/ha + antidote 2.24 kg/ha): 10% | % Injury Corn (corn [1]; Herbicide No.1 0.56 + No.12 3.36 kg/ha + antidote 8.96 kg/ha): 15% | % Injury VL [2, 8]: 80% | % Injury VL [2, 9]: 90% | % Injury VL [2, 10]: 93% | % Injury VL [2, 11]: 90% | % Injury BYG [3, 8]: 80% | % Injury BYG [3, 9]: 90% | % Injury BYG [3, 10]: 85% | % Injury BYG [3, 11]: 90% | % Injury Corn (corn [4]; Herbicide No.1 0.56 kg/ha + SUTAN + 8.96 kg/ha, antidote 2.24 kg/ha): 10% | % Injury Corn (corn [4]; Herbicide No.1 0.56 kg/ha + SUTAN + 8.96 kg/ha, antidote 8.96 kg/ha): 5% | % Injury Corn (corn [4]; Herbicide No.1 1.12 kg/ha + SUTAN + 8.96 kg/ha, antidote 2.24 kg/ha): 0% | % Injury Corn (corn [4]; Herbicide No.1 1.12 kg/ha + SUTAN + 8.96 kg/ha, antidote 8.96 kg/ha): 15% | % Injury Corn (corn [5]; Herbicide No.1 0.56 kg/ha + ERADICANE 8.96 kg/ha, antidote 2.24 kg/ha): 15% | % Injury Corn (corn [5]; Herbicide No.1 0.56 kg/ha + ERADICANE 8.96 kg/ha, antidote 8.96 kg/ha): 25% | % Injury Corn (corn [5]; Herbicide No.1 1.12 kg/ha + ERADICANE 8.96 kg/ha, antidote 2.24 kg/ha): 20% | % Injury Corn (corn [5]; Herbicide No.1 1.12 kg/ha + ERADICANE 8.96 kg/ha, antidote 8.96 kg/ha): 20% | % Injury Corn (corn [6]; Herbicide No.1 0.14 + No.7 4.48 kg/ha + antidote 2.24 kg/ha): 0% | % Injury Corn (corn [6]; Herbicide No.1 0.14 + No.7 4.48 kg/ha + antidote 8.96 kg/ha): 15% | % Injury Corn (corn [6]; Herbicide No.1 0.56 + No.7 4.48 kg/ha + antidote 2.24 kg/ha): 10% | % Injury Corn (corn [6]; Herbicide No.1 0.56 + No.7 4.48 kg/ha + antidote 8.96 kg/ha): 15%

COC(=O)c1c(Cl)nn(C)c1S(=O)(=O)NC(=O)Nc1nc(OC)cc(OC)n1 [Herbicide No. 1]
% Injury Corn (corn [1]; Herbicide No.1 0.14 + No.12 3.36 kg/ha, no antidote): 20% | % Injury Corn (corn [1]; Herbicide No.1 0.14 + No.12 3.36 kg/ha, no antidote (second such line, r25)): 0% | % Injury Corn (corn [1]; Herbicide No.1 0.56 + No.12 3.36 kg/ha, no antidote (second such line, r24)): 10% | % Injury Corn (corn [1]; Herbicide No.1 0.56 + No.12 (metolachlor) 3.36 kg/ha, no antidote): 30% | inhibition at 1120 g/ha ([7]; read-out: % Inhibition VL, Herb. No. 1 0.07 Kg/ha + Co-Herb. No. 4 1.12 Kg/ha, no antidote): 90% | inhibition at 140 g/ha ([7]; read-out: % Inhibition VL, Herb. No. 1 0.07 Kg/ha + Co-Herb. No. 6 0.14 Kg/ha, no antidote): 85% | inhibition at 280 g/ha ([7]; read-out: % Inhibition VL, Herb. No. 1 0.07 Kg/ha + Co-Herb. No. 7 0.28 Kg/ha, no antidote): 90% | inhibition at 280 g/ha ([7]; read-out: % Inhibition VL, Herb. No. 1 0.07 Kg/ha + Co-Herb. No. 12 0.28 Kg/ha, no antidote): 85% | inhibition at 1120 g/ha ([7]; read-out: % Inhibition VL, Herb. No. 1 0.14 Kg/ha + Co-Herb. No. 4 1.12 Kg/ha, no antidote): 90% | inhibition at 140 g/ha ([7]; read-out: % Inhibition VL, Herb. No. 1 0.14 Kg/ha + Co-Herb. No. 6 0.14 Kg/ha, no antidote): 95% | inhibition at 280 g/ha ([7]; read-out: % Inhibition VL, Herb. No. 1 0.14 Kg/ha + Co-Herb. No. 7 0.28 Kg/ha, no antidote): 90% | inhibition at 280 g/ha ([7]; read-out: % Inhibition VL, Herb. No. 1 0.14 Kg/ha + Co-Herb. No. 12 0.28 Kg/ha, no antidote): 90% | inhibition at 1120 g/ha ([7]; read-out: % Inhibition VL, Herb. No. 1 0.28 Kg/ha + Co-Herb. No. 4 1.12 Kg/ha, no antidote): 95% | inhibition at 140 g/ha ([7]; read-out: % Inhibition VL, Herb. No. 1 0.28 Kg/ha + Co-Herb. No. 6 0.14 Kg/ha, no antidote): 95% | inhibition at 280 g/ha ([7]; read-out: % Inhibition VL, Herb. No. 1 0.28 Kg/ha + Co-Herb. No. 7 0.28 Kg/ha, no antidote): 95% | inhibition at 280 g/ha ([7]; read-out: % Inhibition VL, Herb. No. 1 0.28 Kg/ha + Co-Herb. No. 12 0.28 Kg/ha, no antidote): 95% | inhibition at 1120 g/ha ([7]; read-out: % Inhibition VL, Herb. No. 1 0.56 Kg/ha + Co-Herb. No. 4 1.12 Kg/ha, no antidote): 90% | inhibition at 140 g/ha ([7]; read-out: % Inhibition VL, Herb. No. 1 0.56 Kg/ha + Co-Herb. No. 6 0.14 Kg/ha, no antidote): 95% | inhibition at 280 g/ha ([7]; read-out: % Inhibition VL, Herb. No. 1 0.56 Kg/ha + Co-Herb. No. 7 0.28 Kg/ha, no antidote): 95% | inhibition at 280 g/ha ([7]; read-out: % Inhibition VL, Herb. No. 1 0.56 Kg/ha + Co-Herb. No. 12 0.28 Kg/ha, no antidote): 90% | % Injury VL [2, 12]: 80% | % Injury VL [2, 13]: 65% | % Injury VL [2, 14]: 85% | % Injury VL [2, 15]: 80% | % Injury BYG [3, 12]: 93% | % Injury BYG [3, 13]: 55% | % Injury BYG [3, 14]: 93% | % Injury BYG [3, 15]: 70% | % Injury Corn (corn [6]; Herbicide No.1 0.14 + No.7 4.48 kg/ha, no antidote): 20% | % Injury Corn (corn [6]; Herbicide No.1 0.14 kg/ha alone): 5% | % Injury Corn (corn [6]; Herbicide No.1 0.56 + No.7 (alachlor) 4.48 kg/ha, no antidote, average of duplicates): 30% | % Injury Corn (corn [6]; Herbicide No.1 0.56 kg/ha alone): 25%
